Measurements published in paper PMC9133015 (Nature Communications, 2022).
Where “and” joins values, the source holds several entries; their conditions need not be identical. Equal entries are not always repeated.

How the values were obtained:
PC-3 xenograft = experiment: In vivo antitumor activity, PC-3 xenograft mouse model; set-up: species or system BALB/c nude mice; settings: for body weight (Figure S10b): 100 mg/kg (block headed at r39); for tumor volume (Figure S10a): 100 mg/kg, in mm³ (unit assumed); for tumor weight (Figure S10c): individual mice
DU145 cells = experiment: Anti-proliferation activity assay (CCK8, 72 h); format: cell-based, human; settings: for Relative proliferation rate (%) mean / Relative proliferation rate (%) / optical density: DU145; for Relative proliferation rate (%) / optical density: replicates
PC-3 cells = experiment: Anti-proliferation activity assay (CCK8, 72 h); format: cell-based, human; settings: for Relative proliferation rate (%) mean / Relative proliferation rate (%) / optical density: PC-3; for Relative proliferation rate (%) / optical density: replicates

## CCN1CCN(C(=O)c2ccc(Nc3ncc(F)c(-c4ccc5nc(N(C)C)sc5c4)n3)nc2)CC1 [YK-2-69]
PC-3 xenograft; day 7, individual mice
  body weight (Figure S10b): 19.7 and 19.2 (2×) and 19.8 and 20.2 and 19.1 and 20.7 and 21.6
  tumor volume (Figure S10a): 219.658 and 275.568 and 365.875 and 209.513 and 299.159 and 296.64 and 231.386 and 330.578
PC-3 xenograft; day 9, individual mice
  body weight (Figure S10b): 19.9 and 19.6 (2×) and 20.3 and 20.4 and 19.2 and 21.1 and 22.1
  tumor volume (Figure S10a): 329.162 and 379.473 and 478.428 and 304.962 and 429.596 and 486.382 and 340.579 and 484.285
PC-3 xenograft; day 11, individual mice, in g (unit assumed)
  body weight (Figure S10b): 20.2 and 19.8 and 20.6 and 20.7 and 19.9 and 19.6 and 21.5 and 22.4
PC-3 xenograft; day 13, individual mice, in g (unit assumed)
  body weight (Figure S10b): 20.7 and 20.1 and 20.9 and 21 and 20.2 and 19.9 and 22 and 22.7
PC-3 xenograft; day 15, individual mice, in g (unit assumed)
  body weight (Figure S10b): 21.2 and 20.6 and 21.3 and 21.4 and 20.5 and 20.2 and 22.4 and 23.1
PC-3 xenograft; day 17, individual mice
  body weight (Figure S10b): 21.5 (2×) and 20.9 and 21.7 and 20.7 and 20.5 and 22.6 and 23.4
  tumor volume (Figure S10a): 566.789 and 632.783 and 710.893 and 478.638 and 663.313 and 687.885 and 541.191 and 725.155
PC-3 xenograft; day 19, individual mice
  body weight (Figure S10b): 21.6 and 21.3 and 22.1 and 21.8 and 20.9 (2×) and 22.9 and 23.6
  tumor volume (Figure S10a): 626.915 and 695.75 and 762.842 and 529.26 and 724.582 and 714.002 and 593.545 and 775.769
PC-3 xenograft; day 21, individual mice, in g (unit assumed)
  body weight (Figure S10b): 21.9 and 21.7 and 22.5 and 22 and 21.1 and 20.9 and 23.3 and 24.1
PC-3 xenograft; day 23, individual mice, in g (unit assumed)
  body weight (Figure S10b): 22.2 and 21.9 and 22.8 and 22.5 and 21.6 and 21.2 and 23.7 and 24.4
PC-3 xenograft; day 25, individual mice, in g (unit assumed)
  body weight (Figure S10b): 22.4 and 22.2 and 23 and 22.9
PC-3 xenograft; day 1, individual mice
  tumor volume (Figure S10a): 77.4864 and 92.5301 and 97.1283 and 101.268 and 98.0398 and 97.468 and 73.886 and 80.3144
PC-3 xenograft; day 3, individual mice
  tumor volume (Figure S10a): 115.765 and 144.425 and 170.933 and 124.316 and 162.987 and 146.332 and 130.957 and 150.238
PC-3 xenograft; day 5, individual mice
  tumor volume (Figure S10a): 154.192 and 209.47 and 269.793 and 167.67 and 219.907 and 205.492 and 169.178 and 227.654
PC-3 xenograft; day 11, individual mice
  tumor volume (Figure S10a): 425.31 and 450.313 and 557.222 and 355.841 and 497.266 and 558.451 and 389.654 and 598.443
PC-3 xenograft; day 13, individual mice
  tumor volume (Figure S10a): 470.277 and 505.24 and 614.643 and 398.947 and 552.456 and 554.825 and 438.407 and 647.336
PC-3 xenograft; day 15, individual mice
  tumor volume (Figure S10a): 505.825 and 567.155 and 666.998 and 434.631 and 595.348 and 608.437 and 469.076 and 655.028
PC-3 xenograft; day 21, individual mice
  tumor volume (Figure S10a): 664.022 and 757.202 and 792.305 and 567.096 and 783.549 and 751.035 and 675.845 and 837.844
PC-3 xenograft; day 23, individual mice
  tumor volume (Figure S10a): 712.611 and 799.725 and 853.619 and 600.587 and 832.37 and 731.016 and 739.798 and 963.73
PC-3 xenograft; day 25, individual mice
  tumor volume (Figure S10a): 761.381 and 859.669 and 897.54 and 641.932
PC-3 xenograft; High dose, in g (unit assumed)
  tumor weight (Figure S10c): 0.61 and 0.52 and 0.5 and 0.55 and 0.62 and 0.53 and 0.74 and 0.7
PC-3 xenograft; Low dose, in g (unit assumed)
  tumor weight (Figure S10c): 0.79 and 0.89 and 1.1 and 0.91 and 0.71 and 0.92 and 0.81 and 0.88
PC-3 xenograft; PC-3 xenograft, 100 or 200 mg/kg orally every day
  tumor growth (in words): significantly inhibited tumor growth
PC-3 xenograft; PC-3 xenograft, high dose (200 mg/kg)
  tumor volume (in words): decrease tumor volume
DU145 cells; 0.0049 uM
  Relative proliferation rate (%) mean: 5.845%
  Relative proliferation rate (%): 5.804% and 4.647% and 7.084%
  optical density: 0.99 and 0.985 and 1.01
DU145 cells; 0.078 uM
  Relative proliferation rate (%) mean: 13.2988%
  Relative proliferation rate (%): 13.2255% and 9.1% and 17.5713%
  optical density: 0.912 and 0.939 and 0.896
DU145 cells; 0.3125 uM
  Relative proliferation rate (%) mean: 23.3091%
  Relative proliferation rate (%): 23.3111% and 19.8451% and 26.7709%
  optical density: 0.806 and 0.828 and 0.796
DU145 cells; 1.25 uM
  Relative proliferation rate (%) mean: 41.9044%
  Relative proliferation rate (%): 41.8649% and 39.6902% and 44.1582%
  optical density: 0.611 and 0.623 and 0.607
DU145 cells; 5 uM
  Relative proliferation rate (%) mean: 55.1717%
  Relative proliferation rate (%): 55.1855% and 52.3717% and 57.9577%
  optical density: 0.471 and 0.492 and 0.457
DU145 cells; 20 uM
  Relative proliferation rate (%) mean: 69.2763%
  Relative proliferation rate (%): 69.3625% and 65.0532% and 73.4131%
  optical density: 0.322 and 0.361 and 0.289
DU145 cells; 80 uM
  Relative proliferation rate (%) mean: 80.2708%
  Relative proliferation rate (%): 80.3045% and 75.4114% and 85.0966%
  optical density: 0.207 and 0.254 and 0.162
DU145 cells; DU145 cells
  inhibitory activity against proliferation (in words): potent inhibitory activity
DU145 cells; Homo sapiens, DU-145, read-out: IC50 against proliferation
  IC50: 3300 nM
PC-3 cells; Homo sapiens, PC-3, read-out: IC50 against proliferation
  IC50: 1070 nM
PC-3 cells; 0.0049 uM
  Relative proliferation rate (%) mean: 6.648%
  Relative proliferation rate (%): 6.621% and 4.33% and 8.993%
  optical density: 0.945 and 0.95 and 0.931
PC-3 cells; 0.078 uM
  Relative proliferation rate (%) mean: 18.3188%
  Relative proliferation rate (%): 15.5138% and 18.3283% and 21.1144%
  optical density: 0.855 and 0.811 and 0.807
PC-3 cells; 0.3125 uM
  Relative proliferation rate (%) mean: 33.3383%
  Relative proliferation rate (%): 28.6561% and 33.3333% and 38.0254%
  optical density: 0.722 and 0.662 and 0.634
PC-3 cells; 1.25 uM
  Relative proliferation rate (%) mean: 54.3687%
  Relative proliferation rate (%): 47.8261% and 54.3807% and 60.8993%
  optical density: 0.528 and 0.453 and 0.4
PC-3 cells; 5 uM
  Relative proliferation rate (%) mean: 70.2315%
  Relative proliferation rate (%): 66.7984% and 70.1913% and 73.7048%
  optical density: 0.336 and 0.296 and 0.269
PC-3 cells; 20 uM
  Relative proliferation rate (%) mean: 81.0679%
  Relative proliferation rate (%): 78.6561% and 81.0675% and 83.48%
  optical density: 0.216 and 0.188 and 0.169
PC-3 cells; 80 uM
  Relative proliferation rate (%) mean: 88.776%
  Relative proliferation rate (%): 88.7352% and 82.578% and 95.0147%
  optical density: 0.114 and 0.173 and 0.051
PC-3 cells; PC-3 cells
  inhibitory activity against proliferation (in words): potent inhibitory activity
